Values of other authors as cited in US12502373B2, “High-content abamectin emulsifiable concentrate” (Rotam Agrochem International Company Limited, priority 2021, dated 2025).

Experiments:
[1] = pH: 5-9 and 25° C.

Substance: Abamectin
- hydrolysis of the aqueous solution [1]: will not be hydrolysed
- oral LD50 (rats): 1470 mg/kg
